From PubChem BioAssay (NCI)
“And” between values parts separate entries of the source, which are not always exact repeats. Equal entries are not always repeated.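 96-well plates; 48 h exposure; 5 concentrations. Endpoints by linear interpolation between flanking doses. Not reached: highest tested concentration assigned. Abbreviation: GI50, concentration required for 50% inhibition of growth. TGI denotes the concentration required for complete inhibition of growth.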

Key:
Assay in all cases: NCI-60 cell line screen, 48 h
SN12C renal = test system: SN12C renal
DU-145 prostate = test system: DU-145 prostate
SF-539 CNS = test system: SF-539 CNS
M14 melanoma = test system: M14 melanoma
OVCAR-8 ovarian = test system: OVCAR-8 ovarian
U251 CNS = test system: U251 CNS
KM12 colon = test system: KM12 colon
NCI/ADR-RES ovarian = test system: NCI/ADR-RES ovarian
K-562 leukemia = test system: K-562 leukemia
NCI-H226 lung = test system: NCI-H226 lung

Compound	TGI (SN12C renal)	GI50 (DU-145 prostate)	TGI (DU-145 prostate)	GI50 (SF-539 CNS)	TGI (SF-539 CNS)	GI50 (M14 melanoma)	TGI (M14 melanoma)	GI50 (OVCAR-8 ovarian)	TGI (OVCAR-8 ovarian)	GI50 (U251 CNS)	TGI (U251 CNS)	GI50 (KM12 colon)	TGI (KM12 colon)	GI50 (NCI/ADR-RES ovarian) [µM]	TGI (NCI/ADR-RES ovarian)	GI50 (K-562 leukemia)	TGI (K-562 leukemia)	GI50 (NCI-H226 lung)	TGI (NCI-H226 lung)	GI50 (SN12C renal) [µM]
CC(=O)O[C@H]1C(=O)[C@@]2(C)[C@H]([C@H](OC(=O)c3ccccc3)[C@]3([O-])C[C@H](OC(=O)[C@H]([O-])[C@@H](NC(=O)c4ccccc4)c4ccccc4)C(C)=C1C3(C)C)[C@]1(OC(C)=O)CO[C@@H]1C[C@@H]2[O-].[Fe+3]	65 µM and > 100 µM	0.068 µM and 0.0595 µM	0.272 µM and 0.595 µM	0.029 µM and 0.0519 µM	0.549 µM and 0.486 µM	0.11 µM and 0.0637 µM	0.491 µM and 0.391 µM	0.0971 µM and 0.0721 µM	15.5 µM and 27.3 µM	0.0357 µM and 0.0647 µM	7.38 µM and 17.2 µM	0.0324 µM and 0.0623 µM	0.21 µM and 1.21 µM	19.2	15.9 µM and > 100 µM	0.0839 µM and 0.0988 µM	65 µM and > 100 µM	0.227 µM and 0.768 µM	65 µM and 70.7 µM	–
C=CC(=O)Nc1cccc(Nc2nc(Nc3ccc(OCCOC)cc3)ncc2F)c1	31.4 µM	1.55 µM	13.7 µM	1.47 µM	4.95 µM	1.12 µM	12.7 µM	3.19 µM	45.1 µM	1.89 µM	16 µM	3.43 µM	15.6 µM	2.94	16.3 µM	4.8 µM	> 100 µM	0.914 µM	11.6 µM	1.77
O=C(N/N=C/c1ccc(Cl)cc1Cl)c1ccccc1Nc1cccc(C(F)(F)F)c1	48.2 µM	4.08 µM	38.7 µM	3.36 µM	12.8 µM	5.51 µM	35.3 µM	2.47 µM	5.99 µM	3.07 µM	9.64 µM	9.07 µM	> 100 µM	5.97	36.7 µM	4.86 µM	> 100 µM	3.67 µM	43.5 µM	7.66
CC(=O)[CH-]C(C)=O.CC(=O)[CH-]C(C)=O.N=CC=N.[Sn+2]	9.14 µM	2.77 µM	11.2 µM	3.23 µM	11.8 µM	2.41 µM	5.7 µM	2.11 µM	4.74 µM	5.16 µM	17.1 µM	2.94 µM	8.49 µM	3.15	12.6 µM	2.19 µM	13 µM	9.9 µM	23 µM	2.9
CCCSc1cc(Cl)nc(N)n1	> 100 µM	> 100 µM	> 100 µM	> 100 µM	> 100 µM	> 100 µM	> 100 µM	> 100 µM	> 100 µM	> 100 µM	> 100 µM	> 100 µM	> 100 µM	> 100	> 100 µM	> 100 µM	> 100 µM	> 100 µM	> 100 µM	> 100
COc1ccc2c(c1)C=CC(C#N)N2C(=O)c1ccccc1 (stereo unspecified)	> 100 µM	< 0.01 µM	> 100 µM	< 0.01 µM	0.0238 µM	–	–	< 0.01 µM	> 100 µM	< 0.01 µM	> 100 µM	< 0.01 µM	> 100 µM	< 0.0464	–	< 0.01 µM	> 100 µM	4.16 µM	> 100 µM	< 0.0119
